From ChEMBL document CHEMBL3751675, “Characterization of isobutylhydroxyamides with NGF-potentiating activity from Zanthoxylum bungeanum” (Bioorg Med Chem Lett, 2016) come the findings set out here.

The source made the active and inactive calls. No cut-off for these calls is given here.

Series [1] is described as follows: Cytotoxicity against rat PC12 cells assessed as reduction in cell viability up to 50 uM by MTT assay. The settings on record: pc-12. Format: cell-based.
The subject of another series is PC-12. The series is described as follows: Stimulation of NGF-induced neurite outgrowth in rat PC12 cells at 20 uM incubated for 48 hrs by phase contrast microscopy. Format: functional, cell-based.
Series [2] can be described thus: Antioxidant activity assessed as DPPH radical scavenging activity at 50 uM. It counts as physicochemical.
Series [3] can be described thus: Cytotoxicity against NF1 and p53 deficient mouse glioma cells assessed as growth inhibition at 2 ug/ml after 2 days. It counts as functional. The settings on record: Glioma cell, 48 h.
The target in series [4] is T1, Peroxisome proliferator-activated receptor (Homo sapiens, UniProt P37231+Q07869+Q03181).
T1 sequence (P37231 whole entry): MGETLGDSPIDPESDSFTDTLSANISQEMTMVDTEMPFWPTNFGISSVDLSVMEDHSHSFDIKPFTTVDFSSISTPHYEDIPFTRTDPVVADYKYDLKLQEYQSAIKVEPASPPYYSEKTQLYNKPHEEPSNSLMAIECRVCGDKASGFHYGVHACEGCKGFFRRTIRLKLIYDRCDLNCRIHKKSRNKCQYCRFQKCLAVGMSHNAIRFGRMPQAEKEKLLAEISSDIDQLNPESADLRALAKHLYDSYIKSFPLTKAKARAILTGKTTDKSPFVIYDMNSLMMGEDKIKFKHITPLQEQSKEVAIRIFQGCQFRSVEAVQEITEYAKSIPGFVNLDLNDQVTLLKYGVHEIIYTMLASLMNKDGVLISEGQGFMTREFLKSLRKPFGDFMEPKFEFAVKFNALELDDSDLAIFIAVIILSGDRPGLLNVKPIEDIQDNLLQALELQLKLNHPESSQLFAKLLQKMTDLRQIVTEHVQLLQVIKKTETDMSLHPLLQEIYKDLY
T1 sequence (Q07869 whole entry): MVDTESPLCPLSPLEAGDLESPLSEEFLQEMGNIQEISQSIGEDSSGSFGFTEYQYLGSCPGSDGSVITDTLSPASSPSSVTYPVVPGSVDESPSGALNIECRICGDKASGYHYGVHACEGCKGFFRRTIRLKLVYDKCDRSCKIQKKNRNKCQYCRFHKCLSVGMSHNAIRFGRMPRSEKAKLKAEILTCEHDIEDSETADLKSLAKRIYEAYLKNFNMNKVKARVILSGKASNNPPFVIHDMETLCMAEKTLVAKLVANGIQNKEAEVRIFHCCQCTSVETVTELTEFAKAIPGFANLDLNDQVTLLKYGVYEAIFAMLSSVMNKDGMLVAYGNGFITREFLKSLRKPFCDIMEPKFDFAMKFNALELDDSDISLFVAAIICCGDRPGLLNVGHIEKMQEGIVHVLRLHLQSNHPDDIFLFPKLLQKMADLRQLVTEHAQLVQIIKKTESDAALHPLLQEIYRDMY
T1 sequence (Q03181 whole entry): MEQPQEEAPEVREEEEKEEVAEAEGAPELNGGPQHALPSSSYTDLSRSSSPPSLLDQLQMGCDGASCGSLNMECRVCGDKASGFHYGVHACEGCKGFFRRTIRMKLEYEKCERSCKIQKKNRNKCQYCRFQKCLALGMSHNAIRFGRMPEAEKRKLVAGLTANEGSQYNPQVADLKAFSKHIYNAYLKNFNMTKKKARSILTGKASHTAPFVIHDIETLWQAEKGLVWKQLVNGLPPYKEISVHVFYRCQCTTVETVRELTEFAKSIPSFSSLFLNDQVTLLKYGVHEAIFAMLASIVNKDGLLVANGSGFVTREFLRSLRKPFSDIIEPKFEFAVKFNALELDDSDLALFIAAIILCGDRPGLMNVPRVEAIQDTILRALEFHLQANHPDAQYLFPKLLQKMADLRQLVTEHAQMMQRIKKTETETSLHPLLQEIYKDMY
Briefly: Activation of PPAR (unknown origin) transactivation expressed in human HepG2 cells assessed as increase in transcriptional activity after 20 hrs by PPRE-luciferase reporter gene assay. It counts as cell-based.

The next series relates to HCT-116. The series is described as follows: Cytotoxicity against human HCT116 cells at 50 uM. It counts as functional, cell-based.
The nature of series [5]: Cytotoxicity against rat PC12 cells assessed as induction of morphological changes at 20 uM after 48 hrs by phase contrast microscopy in absence of NGF. Format: cell-based. The settings on record: pc-12, 48 h.

On to `CC(=O)/C=C/C=C/C(O)CC/C=C/C(=O)NCC(C)(C)O` (centres undefined), for which the values for the Activity result in series [1] and in series [2] were “Non-toxic” and “Not Active”, respectively. The result with PC-12 was Active. Further, in series [3], the inhibition at 2 µg/mL was 52%. In addition, in series [4], the EC50 worked out at 19.1 µM. In the series with HCT-116, the outcome was inactive.

Take `C[C@H](O)[C@@H](O)/C=C/C=C/CC/C=C/C(=O)NCC(C)(C)O`: the Activity entry in series [1] is recorded as “Non-toxic”; in series [5], “Non-toxic”; in series [2], “Not Active”. In addition, in the series with PC-12, the outcome was Active. Besides, the inhibition at 2 µg/mL in series [3] amounted to 56%. Moreover, the EC50 in series [4] came to 12 µM. In addition, the result in the series on HCT-116 was inactive.

Consider `CC(O)/C=C/C=C/C(=O)CC/C=C/C(=O)NCC(C)(C)O` (centres undefined), for which the Activity entry in series [1] is on record as “Non-toxic”.

In the case of `CCOC(C)/C=C/C=C/C(O)CC/C=C/C(=O)NCC(C)(C)O` (centres undefined), the Activity entry in series [1] is listed as “Non-toxic”; in series [2], “Not Active”. In addition, the outcome in the series on PC-12 was Active. Moreover, in the series with HCT-116, the outcome was inactive.

For the compound `CCOC(/C=C/C=C/C(C)O)CC/C=C/C(=O)NCC(C)(C)O` (centres undefined), in series [1], the Activity entry is recorded as “Non-toxic”.

On to `CC(O)/C=C/C=C/C(=O)C/C=C/C(=O)NCC(C)(C)O` (centres undefined), for which the Activity result in series [1] is on record as “Non-toxic”; in series [2] it was “Not Active”. In addition, the outcome in the series with PC-12 was Active. The result with HCT-116 was inactive.

Turning to `C[C@H](O)[C@H](O)/C=C/C=C\CC/C=C/C(=O)NCC(C)(C)O`, the Activity result in series [1] is “Non-toxic”; in series [5], “Non-toxic”; in series [2], “Not Active”. Further, the result with PC-12 was Active. Moreover, the inhibition at 2 µg/mL in series [3] came to 31%. For the same compound, the outcome in the series with HCT-116 was inactive.

Consider `CC(O)/C=C/C=C/C(O)CC/C=C/C(=O)NCC(C)(C)O` (centres undefined), for which the Activity result in series [1] is recorded as “Non-toxic”; in series [2] it was “Not Active”. Also, the outcome with PC-12 was Active. In addition, the inhibition at 2 µg/mL in series [3] amounted to 41%. Also, the result in the series with HCT-116 was inactive.
